Results published in patent publication US20240226285A9, “IMMUNOSTIMULATORY COMPOSITIONS” (Bayer Animal Health GmbH, priority 2020, published 2024).

Columns and labels:
IRF pathway = assay: Interferon regulatory factor (IRF) pathway readout (Lucia luciferase, QUANTI-Luc) in J774-Dual reporter cell line; format: cell-based, murine; conditions: ODN complexed with liposomes comprising DOTAP+DOPE, DOTMA+DOPE or DDA+DOPE; 40 μM liposomal lipids, 1.85 μg/mL ODN; J774-DUAL cells, 48 h
Experimental: (§1) J774-DUAL™ cells (InvivoGen, murine NF-kB & IRF Reporter macrophage-like cells) were grown in Dulbecco's minimum essential medium (DMEM) with high D-glucose content, 1 mM sodium pyruvate and 4 mM stable glutamine. DMEM was supplemented with 10% FBS, 50 μg/mL streptomycin, 50 U/mL penicillin G and 100 μg/mL Normocin™. Every other week, the culture medium was additionally supplemented with 200 μg/mL Zeocin™ and 20 μg/mL Blasticidin.
(§2) For experimental series, serum free DMEM without phenol red was prepared containing 1 mM sodium pyruvate, 4 mM L-glutamine, 50 μg/mL streptomycin, 50 U/mL penicillin G, 100 μg/mL Normocin™, 200 μg/mL Zeocin™ and 20 μg/mL Blasticidin. J774-DUAL™ cell line was split once per week with a splitting ratio of 1:4.
J774-DUAL™ cells were cultivated in a Heracell™ 150 incubator (Thermo Scientific) at 37° C. with 5% C02 and 95% humidified air. For seeding, cells were counted using a Neubauer bright line hemocytometer (Marienfeld) with a volume 0.1 mm^3. Cell lines were regularly checked for absence of mycoplasmic contamination. […]
J774-Dual™ cells also express the Lucia luciferase gene under the control of the IRF pathway. […] By using QUANTI-Luc™ reagent, a semi-quantitative analysis of IRF activation is thus possible (Invivogen product information (“J774-Dual Cells|NF-κB & IRF/IFN Reporter Macrophage” n.d., 774).
Cells were seeded with a density of 1×10^5 cells per well into 96-well microplates and given 24 h for adherence. […] After 48 h of incubations, 50 μL supernatant of each sample were transferred into 96-well microplates (OptiPlate™-96 HS, Perkin Elmer) and analyzed using QUANTI-Luc™ luminescence assay according to the manufacturer's instructions.
QUANTI-Luc™ reagent was dissolved in 25 mL endotoxin-free water, and 50 μL were added to each well containing samples, controls or calibration standards. Luminescence was immediately determined using EnSpire® multimode plate reader (Perkin Elmer) and measured as relative light units (RLU). […]

NF-κB pathway = assay: NF-κB dependent pathway readout (SEAP, pNPP assay) in J774-Dual reporter cell line; format: cell-based, murine; conditions: for activation of the NF-κB pathway (SEAP levels) compared to untreated J774-DUAL / activation of the NF-κB pathway (increase of SEAP levels in supernatant, normalized to protein content): J774-DUAL cells, 48 h; for activation of the NF-κB pathway (increase of SEAP levels in supernatant, normalized to protein content): FIG. 1, class C ODN, oligonucleotide-liposome complexes, 1.85 μg/mL oligonucleotide
Experimental: as §1, §2
J774-DUAL™ cells were cultivated in a Heracell™ 150 incubator (Thermo Scientific) at 37° C. with 5% C02 and 95% humidified air. For seeding, cells were counted using a Neubauer bright line hemocytometer (Marienfeld) with a volume 0.1 mm^3. Cell lines were regularly checked for absence of mycoplasmic contamination.
J774-Dual™ is a reporter cell line provided by Invivogen, which enables the simultaneous investigation of signal transduction resulting in the activation of the NF-κB and/or the IRF pathway.
J774-Dual™ cells express secreted embryonic alkaline phosphatase (SEAP) under the control of the NF-κB pathway. SEAP is secreted into the cell culture supernatant. Thus, a semi-quantitative analysis of NF-κB activation is possible (Invivogen product information (“J774-Dual Cells|NF-κB & IRF/IFN Reporter Macrophage” n.d., 774)). p-Nitrophenyl phosphate (pNPP) is a widely utilized chromogenic chemical for rapid determination of alkaline phosphatase activity. In the presence of alkaline phosphatase the substance is hydrolyzed into phosphate and the yellow para-Nitrophenol which can be measured spectrophotometrically (Bessey, Otto A., O. H. Lowky, and Mary Jane Brock. “A method for the rapid determination of alkaline phosphatase with five cubic millimeters of serum.” Journal of Biological Chemistry 164 (1946): 321-329.).
Cells were seeded with a density of 1×10^5 cells per well into 96-well microplates and given 24 h for adherence. The culture medium was removed and the cells were incubated with either naked CpG nucleic acids, liposomes or liposome-nucleic acid complexes in serum-free medium at 37° C. with 5% CO2 and 95% humidified air (Heracell™ 150, Thermo Scientific). Liposome with a LC20>40 μM were included in the experimental series. After 48 h of incubation 100 μL supernatant of each sample were transferred into 96-well microplates (SpectraPlate™-96 TC, Perkin Elmer) and analyzed spectrophotometrically using a p-Nitrophenyl phosphate assay.
To this end, 100 μL pNPP working reagent consisting of 20 mM pNPP in 50 mM NaHCO3 buffer (pH 9.6) were added to each well containing samples, controls or calibration standards. After the incubation of the mixture at 37° C. for 1 h, absorbance was determined using Victor3™ V multimode plate reader (Perkin Elmer) equipped with a 405 nm absorbance filter. Lipopolysaccharide from Salmonella anterica serotype Minnesota was applied as calibration standard to determine the linear range of the assay and as positive control. All experiments were conducted in triplicate.
Raw data was normalized to 10 μg/mL protein content and the average value of the untreated control was subtracted.

Substance | activation of the IRF pathway (increase of luciferase levels in supernatant, normalized to protein content) (IRF pathway) | activation of the NF-κB pathway (SEAP levels) compared to untreated J774-DUAL (NF-κB pathway; FIG. 3, ODN complexed with liposomes, 40 μM liposomal lipids, 1.85 μg/mL ODN) | immunostimulatory potency (NF-κB pathway) of complexes compared to the uncomplexed ODN (NF-κB pathway; FIG. 3, all liposome complexes except those with liposomes comprising DOTMA+DOPE, 40 μM lipids, 1.85 μg/mL ODN) | activation of the NF-κB pathway (SEAP levels) compared to untreated J774-DUAL (NF-κB pathway; FIG. 3, uncomplexed (naked) ODN 1.85 μg/mL) | activation of the NF-κB pathway (increase of SEAP levels in supernatant, normalized to protein content) (NF-κB pathway; 40 μM liposomal lipids)
ODN 1668: class B immunostimulatory CpG oligonucleotide, SEQ ID NO. 3 (DNA TCCATGACGTTCCTGATGCT; listed as DNA, chemistry not given here) | potent IRF pathway activation was observed | increased NF-κB pathway activation | not significantly improved | increased NF-κB pathway activation | –
ODN M362: class C immunostimulatory CpG oligonucleotide, SEQ ID NO. 2 (TCGTCGTCGTTCGAACGACGTTGAT; listed as DNA, chemistry not given here) | potent IRF pathway activation was observed | – | – | – | potent NF-κB pathway activation was not observed
ODN 2395: class C immunostimulatory CpG oligonucleotide, SEQ ID NO. 1 (TCGTCGTTTTCGGCGCGCGCCG; listed as DNA, chemistry not given here) | potent IRF pathway activation was observed | – | – | – | potent NF-κB pathway activation was not observed
